# Calls of active or inactive are those of the source. The calls are words filed in the database; no cut-off is given here.
# How the values were obtained:
# [1] = Cytotoxicity against rat CTX TNA2 cells assessed as reduction in cell viability after 24 hrs by MTT assay; assay type: cell-based; details: CTX TNA2, 24 h
# RG2 [2] = assay: Induction of cell cycle arrest in rat RG2 cells assessed as accumulation at G0/G1 phase at 206 uM after 12 hrs by propidium iodide staining based flow cytometric analysis (reference value: 57.81 +/- 1.9%); assay type: functional
# DBTRG-05MG [3] = assay: Cytotoxicity against human DBTRG-05MG cells assessed as reduction in cell viability after 24 hrs by MTT assay; assay type: functional, cell-based
# DBTRG-05MG [4] = assay: Induction of cell cycle arrest in human DBTRG-05MG cells assessed as CyclinA expression at 206 uM after 48 hrs by Western blot analysis (reference value: 1); assay type: functional
# RG2 [5] = assay: Cytotoxicity against rat RG2 cells assessed as reduction in cell viability after 72 hrs by MTT assay; assay type: functional, cell-based; details: for IC50: RG2, 72 h
# DBTRG-05MG [6] = assay: Cytotoxicity against human DBTRG-05MG cells assessed as reduction in cell viability after 72 hrs by MTT assay; assay type: functional, cell-based
# RG2 [7] = assay: Cytotoxicity against rat RG2 cells assessed as reduction in cell viability after 48 hrs by MTT assay; assay type: functional, cell-based; details: for IC50: RG2, 48 h
# RG2 [8] = assay: Induction of apoptosis in rat RG2 cells assessed as increase in chromatin condensation at 206 uM after 48 hrs by TUNEL assay; assay type: functional, cell-based
# RG2 [9] = assay: Inhibition of JNK phosphorylation at Thr183/Tyr185 residues in rat RG2 cells at 206 uM after 48 hrs by Western blot analysis (reference value: 1); assay type: cell-based
# [10] = Cytotoxicity against rat CTX TNA2 cells assessed as reduction in cell viability after 72 hrs by MTT assay; assay type: cell-based; details: CTX TNA2, 72 h
# RG2 [11] = assay: Cytotoxicity against rat RG2 cells assessed as reduction in cell viability after 24 hrs by MTT assay; assay type: functional, cell-based; details: for IC50: RG2, 24 h
# DBTRG-05MG [12] = assay: Cytotoxicity against human DBTRG-05MG cells assessed as reduction in cell viability after 48 hrs by MTT assay; assay type: functional, cell-based
# [13] = Cytotoxicity against rat CTX TNA2 cells assessed as reduction in cell viability after 48 hrs by MTT assay; assay type: cell-based; details: CTX TNA2, 48 h
# DBTRG-05MG [14] = assay: Induction of cell cycle arrest in human DBTRG-05MG cells assessed as p21 expression at 112.4 uM after 48 hrs in presence of TMZ by Western blot analysis (reference value: 1); assay type: functional
# DBTRG-05MG [15] = assay: Potentiation of TMZ-induced antitumor activity against human DBTRG-05MG cells xenografted in BALB/c nude mouse assessed as increase in apoptotic cells at 75 mg/kg, sc co-treated with TMZ for 18 days by TUNEL assay; assay type: functional, organism-based; details: time 18.0 day
# RG2 [16] = assay: Induction of apoptosis in rat RG2 cells assessed as phosphorylated PARP expression at 112.4 uM after 48 hrs in presence of TMZ by Western blot analysis (reference value: 1); assay type: functional
# DBTRG-05MG [17] = assay: Synergistic cytotoxicity against human DBTRG-05MG cells assessed as synergistic effect index at 89.9 uM after 48 hrs in presence of 309 uM TMZ by MTT assay; assay type: functional
# DBTRG-05MG [18] = assay: Synergistic cytotoxicity against human DBTRG-05MG cells assessed as synergistic effect index at 134.9 uM after 48 hrs in presence of 309 uM TMZ by MTT assay; assay type: functional
# DBTRG-05MG [19] = assay: Induction of apoptosis in human DBTRG-05MG cells assessed as increase in DNA fragmentation at 112.4 uM after 48 hrs by TUNEL assay; assay type: functional, cell-based
# [20] = Effect of MDR1 expression in human DBTRG-05MG cells at 112.4 uM after 48 hrs by Western blot analysis; assay type: functional
# DBTRG-05MG [21] = assay: Synergistic cytotoxicity against human DBTRG-05MG cells assessed as synergistic effect index at 112.4 uM after 48 hrs in presence of 412.1 uM TMZ by MTT assay; assay type: functional
# RG2 [22] = assay: Induction of cell cycle arrest in rat RG2 cells assessed as accumulation at S phase at 112.4 uM after 48 hrs in presence of TMZ by propidium iodide staining based flow cytometric analysis (reference value: 20.15 +/- 2.44%); assay type: functional
# DBTRG-05MG [23] = assay: Induction of cell cycle arrest in human DBTRG-05MG cells assessed as accumulation at G0/G1 phase at 112.4 uM after 6 hrs by propidium iodide staining based flow cytometric analysis (reference value: 47.16 +/- 1.55%); assay type: functional
# DBTRG-05MG [24] = assay: Inhibition of TMZ-induced drug resistance in human DBTRG-05MG cells assessed as reduction in MGMT protein expression at 112.4 uM after 48 hrs by Immunohistochemistry method; assay type: functional, cell-based
# DBTRG-05MG [25] = assay: Potentiation of TMZ-induced antitumor activity against human DBTRG-05MG cells xenografted in BALB/c nude mouse assessed as reduction in tumor growth at 75 mg/kg, sc co-treated with TMZ for 18 days by H and E staining-based bright field microscopic analysis; assay type: functional, organism-based; details: time 18.0 day
# DBTRG-05MG [26] = assay: Induction of cell cycle arrest in human DBTRG-05MG cells assessed as CyclinA expression at 112.4 uM after 48 hrs by Western blot analysis (reference value: 1); assay type: functional
# DBTRG-05MG [27] = assay: Induction of cell cycle arrest in human DBTRG-05MG cells assessed as p53 expression at 112.4 uM after 48 hrs by Western blot analysis (reference value: 1); assay type: functional
# DBTRG-05MG [28] = assay: Induction of cell cycle arrest in human DBTRG-05MG cells assessed as accumulation at G2/M phase at 112.4 uM after 24 hrs in presence of TMZ by propidium iodide staining based flow cytometric analysis (reference value: 30.08 +/- 0.1%); assay type: functional
# [29] = Synergistic cytotoxicity against rat CTX TNA2 cells assessed as combination index at 112.4 uM after 48 hrs in presence of 515.1 uM TMZ by MTT assay; assay type: cell-based; details: ctx tna2, 48 h
# RG2 [30] = assay: Induction of DNA damage in rat RG2 cells assessed as Chk1 phosphorylation at ser345 at 112.4 uM after 48 hrs by Western blot analysis (reference value: 1); assay type: functional
# DBTRG-05MG [31] = assay: Inhibition of ERK phosphorylation at Tyr204 residues in human DBTRG-05MG cells at 112.4uM after 48 hrs in presence of TMZ by Western blot analysis (reference value: 1); assay type: cell-based
# RG2 [32] = assay: Induction of cell cycle arrest in rat RG2 cells assessed as accumulation at S phase at 112.4 uM after 6 hrs in presence of TMZ by propidium iodide staining based flow cytometric analysis (reference value: 20.15 +/- 2.44%); assay type: functional
# [33] = Synergistic cytotoxicity against rat CTX TNA2 cells assessed as synergistic effect index at 89.9 uM after 48 hrs in presence of 103 uM TMZ by MTT assay; assay type: cell-based; details: ctx tna2, 48 h
# DBTRG-05MG [34] = assay: Synergistic cytotoxicity against human DBTRG-05MG cells assessed as synergistic effect index at 89.9 uM after 48 hrs in presence of 412.1 uM TMZ by MTT assay; assay type: functional
# RG2 [35] = assay: Induction of cell cycle arrest in rat RG2 cells assessed as accumulation at G0/G1 phase at 112.4 uM after 48 hrs in presence of TMZ by propidium iodide staining based flow cytometric analysis (reference value: 57.81 +/- 1.9%); assay type: functional
smiles,measurement,setting,value
Cn1nnc2c(C(N)=O)ncn2c1=O [TEMOZOLOMIDE],IC50,[1],666 µM
same,Activity,RG2 [2],49.55%
same,IC50,DBTRG-05MG [3],974 µM
same,fold change (FC),DBTRG-05MG [4],1.9
same,IC50,RG2 [5],107 µM
same,IC50,DBTRG-05MG [6],119 µM
same,IC50,RG2 [7],348 µM
same,Activity,RG2 [8],Active
same,fold change (FC),RG2 [9],0.9
same,IC50,[10],431 µM
same,IC50,RG2 [11],962 µM
same,IC50,DBTRG-05MG [12],355 µM
same,IC50,[13],487 µM
C[C@@H]1CC[C@H]2C(C)(C)[C@H]3C[C@@]12CC[C@@]3(C)O [CEDROL],IC50,[1],238 µM
same,fold change (FC),DBTRG-05MG [14],2.7
same,Activity,DBTRG-05MG [15],Active
same,fold change (FC),RG2 [16],0.5
same,Activity_index,DBTRG-05MG [17],0.75
same,Activity,DBTRG-05MG [3],Dose-dependent effect
same,IC50,DBTRG-05MG [3],119 µM
same,Activity_index,DBTRG-05MG [18],0.89
same,Activity,DBTRG-05MG [19],Active
same,Activity,RG2 [5],Dose-dependent effect
same,IC50,RG2 [5],89.2 µM
same,fold change (FC),[20],1.2
same,Activity_index,DBTRG-05MG [21],0.86
same,Activity,RG2 [22],20.29%
same,Activity,DBTRG-05MG [23],53.26%
same,inhibition,DBTRG-05MG [24],Active
same,Activity,DBTRG-05MG [6],Dose-dependent effect
same,IC50,DBTRG-05MG [6],107 µM
same,Activity,RG2 [7],Dose-dependent effect
same,IC50,RG2 [7],93.3 µM
same,Activity,DBTRG-05MG [25],Active
same,fold change (FC),DBTRG-05MG [26],0.6
same,fold change (FC),DBTRG-05MG [27],0.9
same,Activity,DBTRG-05MG [28],36.89%
same,IC50,[10],255 µM
same,Activity,RG2 [11],Dose-dependent effect
same,IC50,RG2 [11],107 µM
same,CI,[29],0.87
same,Activity,DBTRG-05MG [12],Dose-dependent effect
same,IC50,DBTRG-05MG [12],102 µM
same,fold change (FC),RG2 [30],1.1
same,fold change (FC),DBTRG-05MG [31],0.5
same,Activity,RG2 [32],19.02%
same,Activity_index,[33],0.24
same,Activity_index,DBTRG-05MG [34],0.76
same,IC50,[13],280 µM
same,Activity,RG2 [35],44%

# — ChEMBL document CHEMBL4699511, “Cedrol, a Sesquiterpene Alcohol, Enhances the Anticancer Efficacy of Temozolomide in Attenuating Drug Resistance via Regulation of the DNA Damage Response and MGMT Expression” (J Nat Prod, 2020)
